Data as given in patent publication US20130102499A1, “METHOD FOR DETERMINATION OF ACTIVITY OF MITOCHONDRIAL DNA POLYMERASE OF FALCIPARUM MALARIA, AND METHOD FOR SCREENING FOR ANTI-MALARIA COMPOUND” (OCHANOMIZU UNIVERSITY, priority 2010, published 2013).

What was measured:
[1] = system: PFF1225c (C1 fragment), mitochondrial DNA polymerase; assay: DNA polymerase activity measurement of PFF1225c (C1 fragment), sensitivity to inhibitors; type: biochemical, Plasmodium falciparum; settings: for inhibition action to the DNA polymerase activity: FIG. 12a, FIG. 13a
Experimental: When a ^3H amount taken in a DNA chain is measured with a liquid scintillation counter, the pigment of an iron ion causes quenching and an accurate measurement thus cannot be attained. Quenching is classified into three types such as chemical quenching, oxygen quenching, and coloration quenching, and calculation efficiency of a liquid scintillation counter decreases. The case of ^3H being a soft β ray particularly becomes a problem, and coloration quenching becomes a problem in the case of an iron ion. Thus, gallic acid that forms a complex with iron was used and gallic acid iron that is a purple complex was formed. […] The protocol in the case of adding an iron ion is shown below.
In order to prevent oxidation of iron, the reaction solution was exposed to a nitrogen gas for 30 minutes to be degassed.
The reaction solution obtained by adding 50 mM Tris-HCl (pH 7.5), 1 mM dTTP, 40 nM PolydA-dT12, and 10 mM FeCl2 and adjusted to be the total amount of 20 μl with degassed distilled water (DW). […] After the incubation, an iron ion was chelated by adding 10 μl of 100 mM EDTA to terminate the reaction. PicoGreen™ (Molecular Probes), which specifically binds to double-stranded DNA, was used in order to quantitatively determine an amount of DNA synthesized by the DNA polymerase.

[2] = system: apicoplast DNA polymerase (POMUPfprex); settings: reported; cited from earlier work
[3] = biological target: T1, human mitochondrial DNA polymerase γ (Homo sapiens, UniProt P54098); assay: DNA polymerase activity, human mitochondrial DNA polymerase γ; type: biochemical; settings: FIG. 12c
T1 sequence (P54098 1-1239): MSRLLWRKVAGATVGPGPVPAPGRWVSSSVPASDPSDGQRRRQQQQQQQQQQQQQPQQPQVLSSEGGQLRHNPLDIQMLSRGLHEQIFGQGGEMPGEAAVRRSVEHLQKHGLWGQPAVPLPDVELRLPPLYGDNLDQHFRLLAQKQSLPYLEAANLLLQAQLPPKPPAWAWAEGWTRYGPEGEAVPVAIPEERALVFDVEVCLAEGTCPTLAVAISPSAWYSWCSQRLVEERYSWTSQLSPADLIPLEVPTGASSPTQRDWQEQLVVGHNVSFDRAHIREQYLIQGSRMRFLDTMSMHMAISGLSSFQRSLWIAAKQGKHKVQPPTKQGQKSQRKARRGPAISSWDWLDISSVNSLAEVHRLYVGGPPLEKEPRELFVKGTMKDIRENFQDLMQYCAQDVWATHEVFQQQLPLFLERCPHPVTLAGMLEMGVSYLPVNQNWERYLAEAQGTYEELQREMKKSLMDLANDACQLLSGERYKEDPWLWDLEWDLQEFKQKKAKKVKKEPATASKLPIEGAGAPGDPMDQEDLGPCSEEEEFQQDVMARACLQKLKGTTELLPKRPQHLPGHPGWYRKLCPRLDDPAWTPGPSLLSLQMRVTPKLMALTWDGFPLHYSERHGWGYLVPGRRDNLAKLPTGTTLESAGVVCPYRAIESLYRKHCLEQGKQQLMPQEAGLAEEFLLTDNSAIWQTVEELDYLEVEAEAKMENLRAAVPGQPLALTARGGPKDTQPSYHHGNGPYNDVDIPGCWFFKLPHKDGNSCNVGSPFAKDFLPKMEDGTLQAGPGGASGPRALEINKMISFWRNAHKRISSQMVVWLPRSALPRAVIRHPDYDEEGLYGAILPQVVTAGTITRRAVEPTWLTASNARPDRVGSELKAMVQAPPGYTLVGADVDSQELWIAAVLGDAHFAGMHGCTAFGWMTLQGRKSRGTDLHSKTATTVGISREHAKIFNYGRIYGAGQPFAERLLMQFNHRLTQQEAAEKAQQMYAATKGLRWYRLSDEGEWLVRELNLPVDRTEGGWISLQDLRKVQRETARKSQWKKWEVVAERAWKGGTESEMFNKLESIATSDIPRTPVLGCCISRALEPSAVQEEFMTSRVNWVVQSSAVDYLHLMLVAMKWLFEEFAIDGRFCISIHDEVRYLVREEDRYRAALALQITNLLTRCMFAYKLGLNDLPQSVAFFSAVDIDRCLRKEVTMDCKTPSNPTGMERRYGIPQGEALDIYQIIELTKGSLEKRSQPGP
Experimental: 0.1 μg of a C1 fragment was added per 10 μl. The mixed reaction solution was incubated at 37° C. for 30 minutes, then adsorbed to filter paper, dried, and washed with 5% Na2HPO4 4 times (for 10 minutes for each washing), thereafter washing twice with distilled water (DW) (for 5 minutes for each washing), and finally shaken with 100% ethanol for 5 minutes. The filter paper was then dried and the dried filter paper was contained in a vial container charged with 4 ml of a toluene cocktail, and an intake amount of ^3H was measured with a liquid scintillation counter.

PpPolA = settings: FIG. 12b
Experimental: A reaction solution was obtained by adding 50 mM Tris-HCl, 0.5 mM dATP, dGTP, dCTP, 5 μM dTTP, activated DNA (0.5 μg/ml), 0.8 μM [^3H]dTTP (Moravek Co.: (MT-781) Thymidine 5′-triphosphate, tetrasodium salt, [methyl ^3H]), and an enzyme solution was further added thereto, a metallic ion, an inhibitor, etc. having respective concentrations (the total amount of 10 μl). 0.1 μg of a C1 fragment was added per 10 μl. The mixed reaction solution was incubated at 37° C. for 30 minutes, then adsorbed to filter paper, dried, and washed with 5% Na2HPO4 4 times (for 10 minutes for each washing), thereafter washing twice with distilled water (DW) (for 5 minutes for each washing), and finally shaken with 100% ethanol for 5 minutes. The filter paper was then dried and the dried filter paper was contained in a vial container charged with 4 ml of a toluene cocktail, and an intake amount of ^3H was measured with a liquid scintillation counter.

DNA polymerase γ [4] = biological target: T2, DNA polymerase γ (Mus musculus, UniProt P54099); settings: already reported; cited from earlier work
T2 sequence (P54099 1-1218): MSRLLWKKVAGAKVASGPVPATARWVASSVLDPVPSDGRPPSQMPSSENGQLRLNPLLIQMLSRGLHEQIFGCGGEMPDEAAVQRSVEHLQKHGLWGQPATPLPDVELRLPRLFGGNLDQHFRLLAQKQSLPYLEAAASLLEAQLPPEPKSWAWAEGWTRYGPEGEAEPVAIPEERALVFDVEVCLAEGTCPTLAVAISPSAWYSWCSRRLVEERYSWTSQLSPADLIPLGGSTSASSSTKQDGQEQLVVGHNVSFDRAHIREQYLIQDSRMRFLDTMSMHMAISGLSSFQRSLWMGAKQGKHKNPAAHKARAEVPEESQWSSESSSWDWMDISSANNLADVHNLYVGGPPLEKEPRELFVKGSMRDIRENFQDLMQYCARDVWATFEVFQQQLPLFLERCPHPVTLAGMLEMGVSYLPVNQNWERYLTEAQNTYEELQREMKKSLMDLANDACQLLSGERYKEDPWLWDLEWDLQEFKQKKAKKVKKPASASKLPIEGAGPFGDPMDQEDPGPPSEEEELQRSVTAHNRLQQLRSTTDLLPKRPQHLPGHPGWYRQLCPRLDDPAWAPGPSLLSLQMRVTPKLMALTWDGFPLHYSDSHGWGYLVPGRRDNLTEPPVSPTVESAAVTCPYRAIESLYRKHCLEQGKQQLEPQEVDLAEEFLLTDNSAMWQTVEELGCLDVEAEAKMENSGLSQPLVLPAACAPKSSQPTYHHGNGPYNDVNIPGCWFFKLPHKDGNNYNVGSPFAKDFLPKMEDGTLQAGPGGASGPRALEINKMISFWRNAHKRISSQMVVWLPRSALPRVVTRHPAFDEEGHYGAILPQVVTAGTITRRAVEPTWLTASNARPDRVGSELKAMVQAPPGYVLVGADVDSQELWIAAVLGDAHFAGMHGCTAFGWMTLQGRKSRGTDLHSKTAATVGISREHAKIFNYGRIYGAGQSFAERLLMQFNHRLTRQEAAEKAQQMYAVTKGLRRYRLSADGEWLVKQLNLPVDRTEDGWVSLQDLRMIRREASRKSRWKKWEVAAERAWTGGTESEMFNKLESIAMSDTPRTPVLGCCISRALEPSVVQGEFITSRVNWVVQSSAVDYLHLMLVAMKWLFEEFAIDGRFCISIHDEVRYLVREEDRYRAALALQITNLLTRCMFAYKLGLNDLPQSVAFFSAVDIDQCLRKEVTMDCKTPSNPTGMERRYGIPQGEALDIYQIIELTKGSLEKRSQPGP

mouse DNA polymerase α = biological target: T3, mouse DNA polymerase α (Mus musculus, UniProt P33609); settings: already reported; cited from earlier work
T3 sequence (P33609 1-1465): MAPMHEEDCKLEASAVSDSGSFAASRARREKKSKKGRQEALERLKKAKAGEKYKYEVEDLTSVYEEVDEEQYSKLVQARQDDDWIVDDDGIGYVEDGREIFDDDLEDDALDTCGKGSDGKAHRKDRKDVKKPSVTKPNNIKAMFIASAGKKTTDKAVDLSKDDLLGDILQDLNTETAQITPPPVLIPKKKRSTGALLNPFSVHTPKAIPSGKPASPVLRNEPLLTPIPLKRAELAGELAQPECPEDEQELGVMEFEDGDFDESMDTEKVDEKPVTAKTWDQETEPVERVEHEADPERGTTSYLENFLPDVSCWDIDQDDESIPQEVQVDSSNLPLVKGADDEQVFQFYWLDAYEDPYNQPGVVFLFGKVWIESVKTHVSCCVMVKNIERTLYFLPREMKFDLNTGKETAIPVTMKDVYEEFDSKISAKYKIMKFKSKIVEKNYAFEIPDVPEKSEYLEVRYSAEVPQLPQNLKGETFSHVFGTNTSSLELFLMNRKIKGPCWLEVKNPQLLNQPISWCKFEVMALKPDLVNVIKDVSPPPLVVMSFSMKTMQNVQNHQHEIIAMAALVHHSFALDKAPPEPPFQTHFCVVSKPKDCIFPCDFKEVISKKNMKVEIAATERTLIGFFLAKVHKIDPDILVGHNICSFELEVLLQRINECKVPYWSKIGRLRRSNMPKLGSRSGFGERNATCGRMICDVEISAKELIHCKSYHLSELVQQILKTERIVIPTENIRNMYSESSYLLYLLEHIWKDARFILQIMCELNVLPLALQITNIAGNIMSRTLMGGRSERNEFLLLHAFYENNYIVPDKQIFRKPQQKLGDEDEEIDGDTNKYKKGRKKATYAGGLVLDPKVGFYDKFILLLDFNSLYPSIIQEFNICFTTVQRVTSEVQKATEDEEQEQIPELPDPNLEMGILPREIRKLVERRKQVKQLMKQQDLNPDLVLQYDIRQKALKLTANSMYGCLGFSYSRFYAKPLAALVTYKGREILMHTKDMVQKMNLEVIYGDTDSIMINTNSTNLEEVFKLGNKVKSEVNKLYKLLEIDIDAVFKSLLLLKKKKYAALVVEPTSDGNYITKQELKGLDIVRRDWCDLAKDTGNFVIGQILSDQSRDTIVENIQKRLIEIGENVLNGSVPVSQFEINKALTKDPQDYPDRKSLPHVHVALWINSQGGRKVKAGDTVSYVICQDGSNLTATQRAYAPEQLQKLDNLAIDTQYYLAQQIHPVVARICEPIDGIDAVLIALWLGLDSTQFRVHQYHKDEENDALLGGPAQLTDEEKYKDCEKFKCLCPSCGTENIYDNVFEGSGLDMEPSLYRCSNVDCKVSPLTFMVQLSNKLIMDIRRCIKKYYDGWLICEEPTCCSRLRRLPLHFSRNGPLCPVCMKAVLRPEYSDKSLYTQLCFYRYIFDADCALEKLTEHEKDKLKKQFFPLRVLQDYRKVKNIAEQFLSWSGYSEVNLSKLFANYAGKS

[5] = system: DNA polymerase γ-like enzyme; settings: Non-patent Document 5; cited from earlier work
DNA polymerase γ [6] = biological target: T4, DNA polymerase γ (Homo sapiens, UniProt P54098); settings: at a concentration from 50 to 100 mM; reported; cited from earlier work
T4 sequence (P54098 1-1239): T1 sequence (P54098 1-1239)

various DNA polymerases = settings: reported; binds non-specifically; cited from earlier work

CCN(CC)CCCC(C)Nc1ccnc2cc(Cl)ccc12 (stereo not drawn) [chloroquine]
inhibition action to the DNA polymerase activity [1]: inhibited the activity
inhibition of DNA polymerase activity [2]: inhibitors
inhibition action to the DNA polymerase activity [3]: an inhibition effect was not shown
inhibition action to the DNA polymerase activity (PpPolA): an inhibition effect was not shown
inhibition of DNA polymerase activity (DNA polymerase γ [4]): does not inhibit
inhibition of DNA polymerase activity (mouse DNA polymerase α): does not inhibit

C[C@@]1(CO)[C@H](O)CC[C@@]2(C)[C@H]1CC[C@H]1C[C@@H]3C[C@@]12CC[C@]3(O)CO [aphidicolin]
DNA polymerase activity on addition of inhibitor ([1]; added at a concentration from 10 to 100 μM, FIG. 11b): the activity scarcely decreased
sensitivity or resistance of the enzyme to inhibitor [5]: resistance

Cc1cn([C@H]2CC[C@@H](COP(=O)(O)OP(=O)(O)OP(=O)(O)O)O2)c(=O)[nH]c1=O [ddTTP]
inhibition effect on DNA polymerase activity ([1]; along with increasing concentration, FIG. 11d): a weak inhibition effect was shown
remaining DNA polymerase activity ([1]; concentration increased to 400 mM, FIG. 11d): 50%
sensitivity or resistance of the enzyme to inhibitor [5]: resistance
inhibition of DNA polymerase activity (DNA polymerase γ [6]): mostly inhibited

CCN1C(=O)C=CC1=O [NEM, N-ethylmaleimide]
DNA polymerase activity on addition of inhibitor ([1]; in the presence at a high concentration, FIG. 11c): the activity scarcely decreased
sensitivity or resistance of the enzyme to inhibitor [5]: sensitivity

Nc1ncnc2c1ncn2CCOCP(=O)(O)OP(=O)(O)OP(=O)(O)O [PMEApp]
sensitivity or resistance of the enzyme to inhibitor [5]: resistance

Cc1ccc(C(=O)Nc2ccc(S(=O)(=O)O)c3cc(S(=O)(=O)O)cc(S(=O)(=O)O)c23)cc1NC(=O)c1cccc(NC(=O)Nc2cccc(C(=O)Nc3cc(C(=O)Nc4ccc(S(=O)(=O)O)c5cc(S(=O)(=O)O)cc(S(=O)(=O)O)c45)ccc3C)c2)c1 [suramin]
inhibition action to the DNA polymerase activity [1]: inhibited the activity
inhibition of DNA polymerase activity [2]: inhibitors
inhibition of DNA polymerase activity (various DNA polymerases): inhibits the activities
